In US20040024293A1, “Methods and systems for analyzing complex biological systems” (priority 2001, published 2004):
Entries after “also recorded” stand apart in the source; their conditions may differ.

Tests used:
[1] = system: Arabidopsis thaliana plants; assay: Phenotypic analysis of herbicide-treated Arabidopsis plants (SOA1); format: in vivo; settings: for leafCurling (Dev.) / leafTwisting (Dev.) / leafWidth (Dev.) / matureLeafAnthocyanins (Dev.) / matureLeafChlorosis (Dev.) / matureLeafNecrosis (Dev.) / newLeafAnthocyanins (Dev.) / newLeafChlorosis (Dev.) / newLeafNecrosis (Dev.) / pointedLeaves (Dev.) / tMic (Dev.): SOA1, numeric value standardized to mock treated; for Symptom Class: three-week-old Arabidopsis plants treated with herbicide, phenotypes of FIG. 12
Arabidopsis thaliana [2] = assay: Biochemical (metabolite) profiling by LC-MS and GC-MS of sprayed Arabidopsis (MOA1); format: in vivo
Arabidopsis thaliana [3] = assay: Gene expression profiling (22,000 gene array) of sprayed Arabidopsis (MOA1); format: in vivo; settings: for No. of Lethal Genes Altered / gene expression perturbations compared to the other treatments: 1 hr
Magnaporthe grisea = format: cell-based
Arabidopsis plants = settings: nitrate addition to N-starved Arabidopsis plants; cited from earlier work
[4] = system: Saccharomyces cerevisiae wild type strain BY4743; assay: Combined gene expression and metabolite data mapped to KEGG reactions and pathways (AF1); format: cell-based; settings: yeast
Source text: In AF1, two different technologies were utilized: gene expression analysis (for examination of mRNA expression) and metabolite analysis. […] As noted previously, existing metabolic databases may be helpful in practicing the methods and systems of the present invention, but many databases include limitations that make their use in data analysis and pathway mapping less than straightforward. […] This caveat to KEGG makes it difficult to pinpoint the correct pathway when attempting to link a gene to a specific pathway. […] The pathway score indicates how meaningful the mapping is, or how likely it is to be correctly indicative of the pathway involved in the perturbation under examination. The method provides a pathway score based on perturbation levels of genes. and/or compounds and the information content of each gene and/or compound in the pathway, i.e., a pathway score indicates the extent to which other pathways are mapped to a gene/compound. For example, imagine that two genes are perturbed in a particular experiment. One gene maps to only one pathway, giving a high degree of probability that the perturbed pathway is the one identified in the mapping. The second gene maps to three pathways. In the later example, there is only one-third the probability that the pathway identified in the mapping is the one perturbed. The present invention provides a method for calculating the pathway scores, so that more weight is given to a score of a gene or compound that maps to only one pathway than to a score of a gene or compound that maps to multiple pathways. […] Where n=the total number of genes in the pathway; ipath—count=the number of pathways containing a gene; and j=the number of genes in the pathway that are perturbed. Another factor to be considered when weighting a pathway score is the degree of perturbation. Degree of perturbation can be calculated, for example, based on a number of standard deviations from a norm, and included in an equation such as the one shown above, so that not only the number of pathways is taken into account, but also accounts for the amount of gene transcript or compound present as compared to a control. Compounds were also linked to pathways using the KEGG database. KEGG links 676 compounds measured in AF1 to a total of 92 pathways. Of the 676 compounds under consideration, 77 were detected in the AF1 samples. […] The multiple mapping feature of KEGG makes it difficult to pinpoint the correct pathway when trying to link a compound to a specific pathway. […] A pathway score calculation is applied to the compounds to account for both information content (number of pathways a compound maps to) and perturbation level. […]

[5] = concentrations insufficient to inhibit growth

| Structure (SMILES) | leafCurling (Dev.) [1] | leafTwisting (Dev.) [1] | leafWidth (Dev.) [1] | matureLeafAnthocyanins (Dev.) [1] | matureLeafChlorosis (Dev.) [1] | matureLeafNecrosis (Dev.) [1] | newLeafAnthocyanins (Dev.) [1] | newLeafChlorosis (Dev.) [1] | newLeafNecrosis (Dev.) [1] | pointedLeaves (Dev.) [1] | tMic (Dev.) [1] | Symptom Class [1] | No. of Lethal Genes Altered (Arabidopsis thaliana [3]) | also measured |
| --- | --- | --- | --- | --- | --- | --- | --- | --- | --- | --- | --- | --- | --- | --- |
| O=C(O)COc1ccc(Cl)cc1Cl [2,4-D] | 1 | 2 | −1 | 1 | 2 | 0 | 0 | 1 | 0 | 0 | 2 | 5 | – | – |
| CN(C)C(=O)Nc1ccc(Cl)c(Cl)c1 [Diuron] | 1 | 0 | −2 | 0 | 2 | 4 | 0 | 2 | 4 | 1 | 1 | 7 | – | – |
| CP(=O)(O)CCC(N)C(=O)O (stereo not shown) [Glufosinate] | 2 | 1 | −2 | 0 | 3 | 0 | 0 | 3 | 0 | 1 | 1 | 3 | 10 | stress-related metabolites observed (Arabidopsis thaliana [2]; in vivo): Only a few, if any; Regulated Genes Following Herbicide Treatment: Down (Arabidopsis thaliana [3]; in vivo): 54; nitrogen sources M. grisea is able to utilize in the presence of the compound (Magnaporthe grisea): only able to utilize glutamine and glutamate |
| C[n+]1ccc(-c2cc[n+](C)cc2)cc1 [Paraquat] | – | – | – | – | – | – | – | – | – | – | – | 7 | – | – |
| O=[N+]([O-])O [Nitrate] | – | – | – | – | – | – | – | – | – | – | – | – | – | Nitrate Regulation of Glutamate synthetase gene (Arabidopsis plants): ↑; Nitrate Regulation of Glutamine synthetase (2) genes (Arabidopsis plants): ↑; Nitrate Regulation of MADs Box (2) genes (Arabidopsis plants): ↓; Nitrate Regulation of MYB transcription factor gene (Arabidopsis plants): ↑; Nitrate Regulation of Malate Dehydrogenase gene (Arabidopsis plants): ↑; Nitrate Regulation of Nitrate transporter gene (Arabidopsis plants): ↑; Nitrate Regulation of Phosphate transporter gene (Arabidopsis plants): ↑; Nitrate Regulation of Transaldolase gene (Arabidopsis plants): ↑; Nitrate Regulation of Transketolase gene (Arabidopsis plants): ↑ |
| CC(=O)N1CCN(c2ccc(OCC3COC(Cn4ccnc4)(c4ccc(Cl)cc4Cl)O3)cc2)CC1 (stereo not shown) [Ketoconazole] | – | – | – | – | – | – | – | – | – | – | – | – | – | # Reactions (Number Of Pathways Having at Least One Enzyme and One Compound Perturbed) [4]: 24 |
| COc1nc(C)nc(NC(=O)NS(=O)(=O)c2ccccc2Cl)n1 [Chlorsulfuron] | – | – | – | – | – | – | – | – | – | – | – | – | 8 | – |
| CC(C)C1(C)N=C(c2ncccc2C(=O)O)NC1=O (stereo not shown) [Imazapyr] | – | – | – | – | – | – | – | – | – | – | – | – | – | stress-related metabolites observed (Arabidopsis thaliana [2]; MOA1, 20 min and 1 hr): Only a few, if any |
| OC(Cn1cncn1)(Cn1cncn1)c1ccc(F)cc1F [Fluconazole] | – | – | – | – | – | – | – | – | – | – | – | – | – | # Reactions (Number Of Pathways Having at Least One Enzyme and One Compound Perturbed) [4]: 15 |
| O=C(O)CNCP(=O)(O)O [Glyphosate] | 0 | 0 | 0 | 3 | 1 | 3 | 1 | 2 | 0 | 1 | 2 | 4 | – | tyrosine (metabolite downstream from the SOA) relative to the control (Arabidopsis thaliana [2]; in vivo): decreased; growth results of Unknown 4 and glyphosate compared (Magnaporthe grisea): nearly identical; Growth inhibition of M. grisea on inclusion of aromatic amino acids to the media (Magnaporthe grisea; 1.0 mg/ml): remediated; Growth of M. grisea with ammonium or glutamine as nitrogen source (Magnaporthe grisea; Tier 4): Little growth defect |
| CS(=O)(=O)c1cc(C(F)(F)F)ccc1C(=O)c1cnoc1C1CC1 [Isoxaflutole] | – | – | – | – | – | – | – | – | – | – | – | – | 15 | tyrosine and phenylalanine relative to the control (Arabidopsis thaliana [2]; Arabidopsis, after one hour): up-regulated; also recorded: began to accumulate; Alpha-tocopherol levels relative to the control (Arabidopsis thaliana [2]; Arabidopsis, early time points): not significantly changed; M. grisea growth in minimal media (Magnaporthe grisea; [5]): unaffected; M. grisea growth in minimal plus tyrosine media (Magnaporthe grisea; [5]): inhibited |
| COC(=O)NS(=O)(=O)c1ccc(N)cc1 [Asulam] | – | – | – | – | – | – | – | – | – | – | – | – | 5 | gene expression perturbations compared to the other treatments (Arabidopsis thaliana [3]): fewest gene expression perturbations |
| CNc1cnn(-c2cccc(C(F)(F)F)c2)c(=O)c1Cl [Norfluazon, Norflurazon] | – | – | – | – | – | – | – | – | – | – | – | – | – | stress-related metabolites observed (Arabidopsis thaliana [2]; MOA1, 20 min and 1 hr): Only a few, if any |
| O=C(O)c1ccccc1C(=O)Nc1cccc2ccccc12 [Naptalam] | – | – | – | – | – | – | – | – | – | – | – | – | 3 | gene expression perturbations compared to the other treatments (Arabidopsis thaliana [3]): fewest gene expression perturbations; Regulated Genes Following Herbicide Treatment: Down (Arabidopsis thaliana [3]; in vivo): 47; Regulated Genes Following Herbicide Treatment: Up (Arabidopsis thaliana [3]; in vivo): 50 |
| c1cc[n+]2c(c1)-c1cccc[n+]1CC2 [Diquat] | 2 | 0 | −2 | 0 | 1 | 4 | 0 | 1 | 4 | 1 | 2 | 7 | – | – |
